Assay results published in patent publication US11192899B2 (MERCK PATENT GMBH, priority 2017, dated 2021).
pIC50: −log10 of the molar value. Like-named read-outs stand apart in the source and are kept apart here. Values belong to the compound of their own block, whether it stands above or below them.

Legend:
A2B receptors [1] = biological target: T1, A2B receptors (Homo sapiens, UniProt P29275); conditions: cited from earlier work
T1 sequence (P29275 1-332): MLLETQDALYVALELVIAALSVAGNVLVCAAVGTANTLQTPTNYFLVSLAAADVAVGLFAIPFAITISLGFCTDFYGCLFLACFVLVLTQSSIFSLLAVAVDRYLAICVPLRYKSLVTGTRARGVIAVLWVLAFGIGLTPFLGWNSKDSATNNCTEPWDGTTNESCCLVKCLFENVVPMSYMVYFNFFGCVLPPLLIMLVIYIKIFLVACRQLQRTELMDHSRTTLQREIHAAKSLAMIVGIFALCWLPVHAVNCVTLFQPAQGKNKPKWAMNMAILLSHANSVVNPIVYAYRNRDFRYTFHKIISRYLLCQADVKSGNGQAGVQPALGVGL

mouse Pan T cells = assay: rescue of cytokine (IL-2, IFN-γ) secretion of CD3/CD28-activated mouse Pan T cells inhibited by CGS-21680; assay type: cell-based; conditions: for pIC50: Mus musculus, T-cell
Text: Adenosine (Ado) in tumor microenvironment can inhibit T cell activity by signaling through A2A receptors and suppress cytokine secretion by T cells. […] Potential A2A antagonists or A2A/A2B dual antagonists can rescue T cells from this inhibition. Herein, we describe the in vitro system we established using Pan T cells from mouse spleens to screen potential A2A antagonists or A2A/A2B dual antagonists for their activity. The method described involves the use of CD3/CD28 pre-coated beads to stimulate Pan T cells purified from mouse splenocytes, combined with the addition of A2A agonist along with potential A2A or A2A/A2B dual antagonists to evaluate potentiation of T cell cytokine production.
Briefly, mouse Pan T cells are purified from spleens of BALB/c mice using Pan T cell isolation kit Mouse II (MACS Miltenyi biotech Cat #Order no. 130-095-130) according to manufacturer's protocol. The purified T cells are seeded in Nunc™ 96-Well Polystyrene Round Bottom Microwell Plates in RPMI medium with 10% heat inactivated fetal bovine serum. The cells are rested at 37° C. for 1 h before activating with CD3/CD28 pre-coated beads (Dynabeads™ Mouse T-Activator CD3/CD28; Cat #11456D). After 30 min the cells are treated with varying doses of test antagonist(s). […] After 24 h incubation IL-2 levels in the supernatants and after 48 h incubation IFN-γ levels in the supernatants are measured by ELISAs according to manufacturer's protocol (R&D systems Cat #DY402 (IL-2); DY485 (IFN-γ)). Once the concentrations are calculated, the difference of cytokine concentration of DMSO control and agonist alone control is calculated (called Δ) and the percentage of rescue by each concentration of antagonist is calculated by using Microsoft Excel. These percentages of cytokine rescue in a dose dependent manner of antagonist is plotted in GraphPad Prism software and IC50 is calculated.

[2] = pharmacokinetics in mouse after single intravenous and oral administration; conditions: for Feces iv [%]: iv @ 0.2, excretion as % of dose; for Vd / clearance / half-life / Cmax: female, mouse; for Vd / clearance / half-life: 0.2 mg/kg; for Cmax: 1 mg/kg
Description: Female Wistar rats/mice (n=6) received either a single intravenous (bolus) injection or an oral administration (by gavage) of the tested compound.
The concentrations of the compounds in plasma, feces were quantified using an UPLC method with tandem mass spectrometric detection (LC-MS/MS) previously developed at the ‘Institute of Drug Metabolism and Pharmacokinetics’. The LCMS/MS system consisted of a Waters Acquity UPLC coupled to an AB Sciex mass spectrometer API 5500 Q-trap. […] The detection of the compounds was performed using multiple reaction monitoring in the positive ionization mode. Plasma samples were spiked with internal standard (20 μl) and the analyte was extracted from the matrix using tertiary-butyl methyl ether (tBME). The organic phase was evaporated to dryness under a stream of nitrogen. The residue was dissolved in acetonitrile/0.1% formic acid for LC-MS/MS analysis. Feces samples were homogenized with 4-times their volume of an ethanol/water mixture (4:1, v/v). Aliquots of the aqueous-ethanolic extracts were spiked with internal standard, diluted with acetonitrile/water (1:1, v/v) and directly injected into the LC-MS/MS system.
Pharmacokinetic parameters Cmax and tmax were taken from the observed data. […] AUC values were calculated by non-compartmental analysis using the linear up/log down method. Numerical data for mean plasma concentrations and derived pharmacokinetic parameters were rounded to 3 significant digits for presentation.

human A2A receptor = biological target: T2, human A2A receptor (Homo sapiens, UniProt P29274); assay: cAMP HTRF functional assay, recombinant HEK293 cells expressing human A2A receptor, agonist NECA; assay type: cell-based
T2 construct: expressed in transfected cells; host or cells: HEK293
T2 sequence (P29274 whole entry): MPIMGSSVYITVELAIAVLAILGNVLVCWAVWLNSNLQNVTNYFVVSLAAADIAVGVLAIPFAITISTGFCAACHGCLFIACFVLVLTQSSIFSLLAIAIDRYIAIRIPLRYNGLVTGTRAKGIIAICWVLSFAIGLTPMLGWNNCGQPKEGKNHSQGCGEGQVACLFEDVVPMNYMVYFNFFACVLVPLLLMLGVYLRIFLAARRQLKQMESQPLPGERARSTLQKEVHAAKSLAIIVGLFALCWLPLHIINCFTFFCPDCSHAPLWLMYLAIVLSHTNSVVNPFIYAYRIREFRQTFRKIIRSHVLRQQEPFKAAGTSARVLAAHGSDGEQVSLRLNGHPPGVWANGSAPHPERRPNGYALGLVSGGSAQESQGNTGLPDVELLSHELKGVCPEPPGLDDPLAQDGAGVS
Description: (§1) The functional activities of human A2A, A2B, A1 and A3 receptors were determined by quantification of cAMP, being the second messenger for adenosine receptors.
(§2) Obtained raw data were normalized against the inhibitor control and the neural control (DMSO) and the normalized data were fitted using GeneData software.

human A3 receptor = biological target: T3, human A3 receptor (Homo sapiens, UniProt P0DMS8); assay: cAMP HTRF functional assay, recombinant CHO cells expressing human A3 receptor, forskolin and agonist IB-MECA; assay type: cell-based
T3 construct: expressed in transfected cells; host or cells: CHO
T3 sequence (P0DMS8 1-318): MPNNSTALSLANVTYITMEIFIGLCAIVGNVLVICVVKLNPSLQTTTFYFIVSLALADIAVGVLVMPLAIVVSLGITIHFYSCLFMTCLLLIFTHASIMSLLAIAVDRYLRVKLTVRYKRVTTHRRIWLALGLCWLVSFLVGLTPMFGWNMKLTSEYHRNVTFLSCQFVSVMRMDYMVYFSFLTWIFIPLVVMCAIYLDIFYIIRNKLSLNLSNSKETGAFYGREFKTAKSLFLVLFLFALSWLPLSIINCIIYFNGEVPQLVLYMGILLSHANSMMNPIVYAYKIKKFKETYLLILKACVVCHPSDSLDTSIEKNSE
Description: as §1
(§3) For human A1 and A3 receptors, recombinant CHO cells, expressing either A1 or A3-receptor, were used. As both receptors couple to Gi proteins, the assay protocol was adapted:
(§4) Cells were seeded into 384-well plates, forskolin, test compounds and agonists (CPA for A1- and IB-MECA for A3-receptor) were added. After 30 min incubation, HTRF reagents (cAMP dynamic 2, Cis Bio) were added and the cellular cAMP levels were determined using the ENVISION (Perkin Elmer) plate reader.
as §2

human A1 receptor = biological target: T4, human A1 receptor (Homo sapiens, UniProt P30542); assay: cAMP HTRF functional assay, recombinant CHO cells expressing human A1 receptor, forskolin and agonist CPA; assay type: cell-based
T4 construct: expressed in transfected cells; host or cells: CHO
T4 sequence (P30542 1-326): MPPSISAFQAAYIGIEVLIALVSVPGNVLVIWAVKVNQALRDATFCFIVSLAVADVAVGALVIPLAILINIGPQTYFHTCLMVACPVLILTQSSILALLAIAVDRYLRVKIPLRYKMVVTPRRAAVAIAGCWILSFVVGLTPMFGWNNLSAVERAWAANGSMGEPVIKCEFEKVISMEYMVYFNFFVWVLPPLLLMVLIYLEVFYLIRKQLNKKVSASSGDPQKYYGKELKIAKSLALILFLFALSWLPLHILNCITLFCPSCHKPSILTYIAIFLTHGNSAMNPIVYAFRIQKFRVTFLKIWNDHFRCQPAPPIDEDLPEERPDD
Description: as §1, §3, §4, §2

A2B receptors [3] = biological target: T1, A2B receptors; assay: cAMP HTRF functional assay, recombinant HEK293 cells expressing human A2B receptor, agonist NECA; assay type: cell-based; parameters: expressed in transfected cells; host or cells: HEK293
Description: as §1, §2

[4] = 24 h, read-out: Mouse T-Cell IL-2

CL ([2]; PK data in mouse, iv): 1478 mL/min/kg
Vss [L/kg] ([2]; PK data in mouse, iv): 2,03 L/kg
t1/2 [h] ([2]; PK data in mouse, iv): 0,184 h
Feces iv [%] ([2]; PK data in mouse): 23 @ 0.2%
CMax (iv) @ 1 mg/kg ([2]; PK data in mouse, iv): 337 ng/mL
SMILES: COc1ccc(N2CCOCC2)c2sc(NC(=O)N3CCC(C)(O)CC3)nc12 [Tozadenant, reference compound]
Mouse IFN-γ [nM] (mouse Pan T cells; IFN-γ rescue, 48 h, CGS-21680 1 μM, BALB/c Pan T cells): NA (< 50% rescue)
Mouse T-Cell IL-2 [nM] (mouse Pan T cells; IL-2 rescue, 24 h, CGS-21680 1 μM, BALB/c Pan T cells): NA (< 50% rescue)

pIC50 (human A2A receptor): > 7.00
pIC50 (human A3 receptor): < 6.00
pIC50 (mouse Pan T cells; [4]): 6.40
pIC50 (mouse Pan T cells; 48 h, read-out: Mouse IFN-γ): 6.22
pIC50 (human A1 receptor): < 6.00
pIC50 (A2B receptors [3]): < 6.00
Feces iv [%] ([2]; PK data in mouse): 12.5 @ 0.2%
Vd ([2]; plasma, iv): 1.13 L/kg
clearance ([2]; plasma, iv): 5.65 mL/min/kg
half-life ([2]; plasma, iv): 2.37 h
Cmax ([2]; plasma, iv): 732 ng/mL
SMILES: COc1ccc(-c2ccccc2)c2ncc(NC(=O)N3CCC(C)(O)CC3)nc12 [compound 2, 4-Hydroxy-4-methyl-piperidine-1-carboxylic acid (8-methoxy-5-phenyl-quinoxalin-2-yl)-amide]

pIC50 (human A2A receptor): > 7.00
pIC50 (human A3 receptor): < 6.00
pIC50 (human A1 receptor): > 6.00
pIC50 (A2B receptors [3]): < 6.00
Feces iv [%] ([2]; PK data in mouse): 1.8 @ 0.2%
Vd ([2]; plasma, iv): 0.811 L/kg
clearance ([2]; plasma, iv): 18.2 mL/min/kg
half-life ([2]; plasma, iv): 0.55 h
Cmax ([2]; plasma, iv): 1090 ng/mL
SMILES: C#CCC1(O)CCN(C(=O)Nc2cnc3c(C4CCOCC4)ccc(OC)c3n2)CC1 [compound 10]

pIC50 (human A2A receptor): > 7.00
pIC50 (human A3 receptor): < 6.00
pIC50 (mouse Pan T cells; [4]): 6.43
pIC50 (mouse Pan T cells; 48 h, read-out: Mouse IFN-γ): 6.48
pIC50 (human A1 receptor): > 6.00
pIC50 (A2B receptors [3]): < 6.00
Feces iv [%] ([2]; PK data in mouse): 6.2 @ 0.2%
Vd ([2]; plasma, iv): 0.82 L/kg
clearance ([2]; plasma, iv): 3.78 mL/min/kg
half-life ([2]; plasma, iv): 2.56 h
Cmax ([2]; plasma, iv): 983 ng/mL
SMILES: COc1ncc(-c2ccccc2)c2ncc(NC(=O)N3CCC(C)(O)CC3)nc12 [compound 27, 4-Hydroxy-4-methyl-piperidine-1-carboxylic acid (5-methoxy-8-phenyl-pyrido[3,4-b]pyrazin-3-yl)-amide]

pIC50 (human A2A receptor): > 7.00
pIC50 (human A3 receptor): < 6.00
pIC50 (human A1 receptor): > 6.00
pIC50 (A2B receptors [3]): < 6.00
SMILES: COc1ncc(-c2ccc(OC)c3nc(NC(=O)C4CC4)cnc23)cn1 [compound 156, N-[8-methoxy-5-(2-methoxypyrimidin-5-yl)quinoxalin-2-yl]cyclopropanecarboxamide]

The remaining lines, values behind:

SMILES: CCCn1c(=O)c2[nH]c(-c3ccc(S(=O)(=O)O)cc3)nc2n(CCC)c1=O [DPSPX, 1,3-dipropyl-8-sulphophenylxanthine]
affinity for A2B receptors (A2B receptors [1]): mid to high nM range

SMILES: O=c1[nH]c(=O)c2nc3ccccc3nc2[nH]1 [alloxazine, 2,4-dioxobenzopteridine]
affinity for A2B receptors (A2B receptors [1]): mid to high nM range

SMILES: COc1ccc(C2CCOCC2)c2ncc(NC(=O)N3CCC(C)(O)CC3)nc12 [compound 5]
pIC50 (human A2A receptor): > 7.00
pIC50 (human A3 receptor): < 6.00
pIC50 (human A1 receptor): < 6.00
pIC50 (A2B receptors [3]): < 6.00
Feces iv [%] ([2]; PK data in mouse): 4.2 @ 0.2%
CMax (iv) @ 1 mg/kg ([2]; PK data in mouse, iv): 908 ng/mL
half-life ([2]; in vivo, iv): 0.92 h
Vd ([2]; plasma, iv): 1.24 L/kg
clearance ([2]; plasma, iv): 19.7 mL/min/kg

SMILES: CCCn1c(=O)[nH]c(=O)c2[nH]cnc21 [enprofylline, 3-n-propylxanthine]
affinity for A2B receptors (A2B receptors [1]): mid to high nM range
